According to patent publication US20210122763A1, “OGA INHIBITOR COMPOUNDS” (Janssen Pharmaceutica NV, priority 2018, published 2021):
Structures can show the parent of a compound that is named as a salt.

Legend:
[1] = molecular target: T1, recombinant human Meningioma Expressed Antigen 5 (MGEA5), also referred to as O-GlcNAcase (OGA) (Homo sapiens, UniProt O60502); experiment: OGA biochemical assay (inhibition of FM-GlcNAc hydrolysis, fluorescence); settings: for Emax: read-out: Enzymatic Emax (%); for IC50: read-out: Enzymatic hOGA, pIC50 (converted)
T1 construct: Full length OGA enzyme was purchased at OriGene (cat #TP322411); purchased OriGene TP322411
T1 sequence (O60502 1-916): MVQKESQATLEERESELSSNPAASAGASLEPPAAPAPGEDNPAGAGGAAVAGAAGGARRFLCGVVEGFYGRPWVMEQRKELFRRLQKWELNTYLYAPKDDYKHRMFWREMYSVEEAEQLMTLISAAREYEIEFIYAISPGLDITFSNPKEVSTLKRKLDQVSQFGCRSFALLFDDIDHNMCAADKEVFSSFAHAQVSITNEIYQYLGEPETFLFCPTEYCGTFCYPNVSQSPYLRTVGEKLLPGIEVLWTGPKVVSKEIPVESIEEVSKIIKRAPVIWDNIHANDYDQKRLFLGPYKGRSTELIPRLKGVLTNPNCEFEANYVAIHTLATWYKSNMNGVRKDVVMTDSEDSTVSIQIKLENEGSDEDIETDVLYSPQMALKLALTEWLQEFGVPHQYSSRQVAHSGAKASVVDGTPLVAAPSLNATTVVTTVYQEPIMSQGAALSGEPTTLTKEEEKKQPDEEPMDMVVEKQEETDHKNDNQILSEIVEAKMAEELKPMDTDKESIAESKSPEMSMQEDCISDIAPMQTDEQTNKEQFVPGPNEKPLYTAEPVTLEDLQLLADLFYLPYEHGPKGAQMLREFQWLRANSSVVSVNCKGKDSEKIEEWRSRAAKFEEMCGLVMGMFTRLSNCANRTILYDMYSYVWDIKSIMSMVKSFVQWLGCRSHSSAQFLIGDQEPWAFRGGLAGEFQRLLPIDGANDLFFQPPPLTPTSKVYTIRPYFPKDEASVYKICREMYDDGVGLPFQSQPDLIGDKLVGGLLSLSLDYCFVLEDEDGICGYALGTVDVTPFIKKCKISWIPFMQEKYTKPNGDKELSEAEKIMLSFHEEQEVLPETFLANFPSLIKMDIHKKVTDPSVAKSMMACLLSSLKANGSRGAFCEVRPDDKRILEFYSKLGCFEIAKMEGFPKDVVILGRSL
Method in brief: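 Full-length OGA at 2 nM was pre-incubated 60 min at room temperature with compound, then FM-GlcNAc at 100 uM final was added in citrate/phosphate buffer pH 7.2 with 0.005% Tween-20. After 6 h at room temperature, carbonate pH 11.0 stopped the reaction. Fluorescence read at 485/538 nm; IC50 and Hill coefficient from curve fit against no-inhibitor and saturating-standard controls.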

[2] = molecular target: T2, OGA (Homo sapiens, UniProt O60502); experiment: OGA cellular assay (ICC detection of O-GlcNAcylated proteins in HEK293 cells inducible for P301L mutant human Tau); assay type: cell-based; settings: 6 hours incubation; for Emax: HEK293, HEK293 cells inducible for P301L mutant human Tau, maximum = Thiamet G 200 uM; for EC50: HEK293 cells inducible for P301L mutant human Tau, read-out: Cellular hOGA, pEC50 (converted)
T2 construct: HEK293 cells inducible for P301L mutant human Tau (isoform 2N4R) were established at Janssen; endogenous in cells; host or cells: HEK293 cells inducible for P301L mutant human Tau (2N4R)
T2 sequence (O60502 1-916): T1 sequence (O60502 1-916)
Method in brief: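 HEK293 cells with inducible P301L 2N4R Tau, seeded in low-glucose medium, were exposed to compounds for 6 hours (0.2% DMSO), then PFA-fixed and stained with CTD110.6. Imaging intensity at 488 nm measured O-GlcNAcylation, with Hoechst nuclei counts for toxicity. IC50s came from non-linear regression, with Thiamet G at 200 uM as maximum inhibition.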

melting point [°C]	Emax [1] [%]	IC50 [1] [µM]	Emax [2] [%]	EC50 [2] [µM]	Compound
255.75	–	–	–	–	Cc1cc(OC2CCN([C@H](C)c3nc4c(cc3F)OCCO4)CC2)cc(C)n1 (single isomer, unassigned) (as salt: HCl) [Compound 148]
64.4	95	0.0126	81	0.0501	Cc1ncc(COC2CCN(C(C)c3nc4c(cc3F)OCCO4)CC2)cn1 (single isomer, unassigned) [Compound 136]
70.1	96	0.398	25	> 1	Cc1ncc(COC2CCN([C@@H](C)c3nc4c(cc3F)OCCO4)CC2)cn1 (single isomer, unassigned) [Compound 137]
134.6	105	0.0158	86	0.2	Cc1ncc(OC2CCN(C(C)c3nc4c(cc3F)OCCO4)CC2)cn1.Cl (stereo not shown) [Compound 91]
153.41	96	0.01	87	0.158	Cc1nc(OC2CCN(C(C)c3nc4c(cc3F)OCCO4)CC2)ccc1C#N (stereo not shown) [Compound 112]
161.44	96	0.0158	83	0.126	Cc1cc(OC2CCN(C(C)c3nc4c(cc3F)OCCO4)CC2)ncc1C#N (stereo not shown) [Compound 113]
138	99	0.0251	73	0.0631	Cc1ccc(NC2CCN(C(C)c3nc4c(cc3F)OCCO4)CC2)cn1 (stereo not shown) [Compound 126]
209.9	98	0.02	81	0.135	Cc1ncc(NC2CCN(C(C)c3nc4c(cc3F)OCCO4)CC2)cn1 (stereo not shown) [Compound 127]
250	97	0.0251	87	0.0501	Cc1cc(NC2CCN(C(C)c3nc4c(cc3F)OCCO4)CC2)cc(C)n1 (stereo not shown) [Compound 133]
132.9	97	0.0316	97	0.0794	Cc1ncc(COC2CCN(C(C)c3nc4c(cc3F)OCCO4)CC2)cn1 (stereo not shown) [Compound 135]
140.6	102	0.02	67	0.2	Cc1ccc(OC2CCN(C(C)c3nc4c(cc3F)OCCO4)CC2)nc1C (stereo not shown) [Compound 156]
–	96	0.00794	72	0.0676	CC(c1nc2c(cc1F)OCCO2)N1CCC(Oc2ccc(C3CC3)nc2)CC1 (stereo not shown) [Compound 164]
–	94	0.0158	72	0.316	Cc1ccc(OC2CCN(C(C)c3nc4c(cc3F)OCCO4)CC2)nc1 (stereo not shown) [Compound 165]
–	98	0.01	85	0.0631	Cc1cc(OC2CCN(C(C)c3nc4c(cc3F)OCCO4)CC2)cnc1C (stereo not shown) [Compound 166]
–	96	0.0126	75	0.2	CC(c1nc2c(cc1F)OCCO2)N1CCC(Oc2cnc(C(F)(F)F)nc2)CC1 (stereo not shown) [Compound 168]

Further lines, the compound ahead of its results:

Compound	melting point [°C]	Emax [1] [%]	IC50 [1] [µM]	Emax [2] [%]	EC50 [2] [µM]
Cc1ccc(OC2CCN(C(C)c3ccc4c(n3)OCCO4)CC2)cn1 (stereo not shown) (as salt: HCl) [Compound 41]	226.7	–	–	–	–
CC(c1nc2c(cc1F)OCCO2)N1CCC(Oc2ccc(C(=O)N(C(C)C)C(C)C)nc2)CC1 (stereo not shown) (as salt: HCl) [Compound 123]	139.7	–	–	–	–
Cc1cc(OC2CCN(C(C)c3ccc4c(n3)OCCO4)CC2)cc(OC(C)C)n1 (stereo not shown) (as salt: HCl) [Compound 124]	196.6	–	–	–	–
Cc1cc(OC2CCN(C(C)c3ccc4c(n3)OCCO4)CC2)cc(C2CC2)n1 (stereo not shown) (as salt: HCl) [Compound 125]	171.4	–	–	–	–
CCc1cc(OC2CCN(C(C)c3ccc4c(n3)OCCO4)CC2)cc(C)n1 (stereo not shown) (as salt: HCl) [Compound 129]	66	–	–	–	–
Cc1cc(OC2CCN(C(C)c3ccc4c(n3)OCCO4)CC2)cc(C(C)C)n1 (stereo not shown) (as salt: HCl) [Compound 130]	186.4	–	–	–	–
Cc1cc(OC2(CF)CCN(C(C)c3ccc4c(n3)OCCO4)CC2)cc(C)n1 (stereo not shown) (as salt: HCl) [Compound 132]	189.8	–	–	–	–
Cc1cc(OC2CCN([C@@H](C)c3nc4c(cc3F)CCO4)CC2)cc(C)n1 (single isomer, unassigned) (as salt: HCl) [Compound 145]	103.27	–	–	–	–
Cc1cc(OC2CCN([C@H](C)c3nc4c(cc3F)CCO4)CC2)cc(C)n1 (single isomer, unassigned) [Compound 143]	105.3	99	0.00501	100	0.0174
Cc1ncc(OC2CCN(C(C)c3ccc4c(c3)OCO4)CC2)cn1.Cl (stereo not shown) [Compound 30]	213.2	100	0.794	15	> 1
Cc1ccc(OC2CCN(C(C)c3ccc4c(c3)OCO4)CC2)cn1.Cl (stereo not shown) [Compound 31]	278.4	96	0.794	21	> 1
Cc1cncc(OC2CCN(C(C)c3ccc4c(n3)OCCO4)CC2)n1 (stereo not shown) [Compound 76]	91.71	99	0.0794	36	> 1
Cc1ncc(OC2CCN(C(C)c3ccc4c(n3)OCCO4)CC2)cn1.Cl (stereo not shown) [Compound 90]	72.8	100	0.1	48	> 1
CNC(=O)c1ccc(OC2CCN(C(C)c3ccc4c(n3)OCCO4)CC2)cn1 (stereo not shown) [Compound 122]	94.5	100	0.0794	48	0.794
Cc1ncc(OC2CCN(C(C)c3ccc4c(n3)OCCC4)CC2)cn1.Cl (stereo not shown) [Compound 139]	208.1	95	0.2	31	> 1
Cc1cc(CC2CCN(C(C)c3ccc4c(n3)OCCO4)CC2)cc(C)n1 (stereo not shown) [Compound 140]	144.6	98	0.398	64	0.251
Cc1cnc(OC2CCN(C(C)c3ccc4c(n3)OCCO4)CC2)cn1 (stereo not shown) [Compound 141]	119.6	97	0.2	51	0.794
CCOc1cc(OC2CCN(C(C)c3ccc4c(n3)OCCO4)CC2)cc(C)n1.Cl (stereo not shown) [Compound 142]	119.6	104	0.0251	73	0.158
CC(c1ccc2c(n1)OCCO2)N1CCC(Oc2ccc(C#N)nc2)CC1 (stereo not shown) [Compound 150]	133	95	0.0794	57	0.398
Cc1ccc(OC2CCN(C(C)c3ccc4c(n3)OCCO4)CC2)nn1.Cl (stereo not shown) [Compound 151]	168	98	0.2	30	> 1
Cc1cc(COC2CCN(C(C)c3nc4c(cc3F)OCCO4)CC2)cc(C(F)(F)F)n1 (stereo not shown) [Compound 169]	–	96	0.0126	87	0.0513
